# Patent US20260325533A1, “CDK INHIBITOR COMPOUNDS” (ALEKSIA THERAPEUTICS, INC., priority 2023, published 2026)
# pIC50: −log10 of the molar value. Where two headings read alike, the source gives them in different places.
# How the values were obtained:
# Type in all cases: biochemical
# CDK6/CCND1 = CDK6/CCND1 (Homo sapiens, UniProt Q00534); experiment: CDK6 homogeneous time-resolved fluorescence (HTRF) kinase assay; details: CDK6/CCND
# Procedure: (§1) A CDK homogeneous time-resolved fluorescence (HTRF) assay was used to assess the potency of the compounds described herein.
# (§2) To an untreated 384-well microtiter plate (ProxiPlate) was added 100 nL 100×test compound in DMSO and 5 μL 2×CDK enzyme in assay buffer (50 mM HEPES, 1 mM EGTA, 10 mM MgCl2, 0.01% Tween 20, 2 mM DTT). The plate was centrifuged at 800 RPM for 1 min then incubated for 20 min at 23 °C. 2.5 μL per well of 4×ATP and 2.5 μL 4×ULight™-eIF4E-binding protein 1 (Thr37/46) Peptide substrate were added to all wells. After addition, the plates were centrifuged at 800 RPM for 1 min. The plates were incubated at 23 °C for 60 min. 5 μL per well 4×EDTA solution were added to each well to stop the reaction. 5 μL 4×LANCE Ultra Europium-anti-phospho-eIF4E-binding protein 1 (Thr37/46) antibody were added to each well and the plate was centrifuged for 1 min at 800 RPM. The plate was incubated for 60 min at 23 °C. Fluorescence was read at 340 nm excitation and 665 nm emission on an EnVision 2105 fluorescence reader. The final concentrations of reagents in the activity assay were 1 nM CDK6/CCND1, 1 mM ATP, 50 nM ULight™-eIF4E-binding protein 1 (Thr37/46) Peptide substrate, 1% DMSO, 10 mM EDTA, and 2 nM LANCE Ultra Europium-anti-phospho-eIF4E-binding protein 1 (Thr37/46).
# (§3) Dose-response titrations were conducted by using an 11-point, half-logarithmic serial dilution scheme typically starting at 10 μM. Signals were reported as fluorescence units at 665 nm or the ratio of fluorescence units at 665 nm/fluorescence units at 615 nm. Signals are referred to below as “Lance signals”.
# (§4) Using this assay, the IC50 values of example compounds were determined. Table 3 illustrates the IC50 for various Example compounds of Formula IA. Table 4 illustrates the IC50 for various other Example compounds of Formula I. ND=not determined.
# CDK4/CCND3 = CDK4/CCND3 (Homo sapiens, UniProt P11802); experiment: CDK4 homogeneous time-resolved fluorescence (HTRF) kinase assay; details: CDK4/CCND
# Procedure: as §1
# as §2, with “were 1.5” for “were 1”, “nM CDK4/CCND3,” for “nM CDK6/CCND1,”
# as §3, §4
# CDK2/CCNE1 = CDK2/CCNE1 (Homo sapiens, UniProt P24941); experiment: CDK2 homogeneous time-resolved fluorescence (HTRF) kinase assay; details: CDK2/CCNE
# Outline: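 3 nM CDK2/CCNE1 was preincubated with compound for 20 min at 23 °C in HEPES buffer (pH not stated), then reacted 60 min with 1 mM ATP and 50 nM ULight-4E-BP1 (Thr37/46) peptide. After EDTA stop, Eu-anti-phospho-4E-BP1 antibody (2 nM) was added for 60 min and TR-FRET read at 665 nm.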
# CDK1/CCNB1 = CDK1/CCNB1 (Homo sapiens, UniProt P06493); experiment: CDK1 homogeneous time-resolved fluorescence (HTRF) kinase assay; details: CDK1/CCNB
# Outline: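 HTRF assay with 0.5 nM CDK1/CCNB1, 1 mM ATP, 50 nM ULight-eIF4E-BP1 (Thr37/46) peptide; compound preincubated 20 min, reaction 60 min at 23 °C, EDTA stop, Eu-anti-phospho antibody detection. 11-point half-log titration from 10 μM, 1% DMSO; IC50 from 665 nm or 665/615 signal.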
# [1] = x = IC50 >250 nM, read-out: CDK6/CCND IC50 (>250 nM column)
# [2] = x = IC50 >250 nM, read-out: CDK4/CCND IC50 (>250 nM column)
# [3] = x = IC50 <25 nM, read-out: CDK2/CCNE IC50 (<25 nM)
# [4] = x = IC50 25-250 nM, read-out: CDK1/CCNB IC50 (25-250 nM)
# [5] = x = IC50 25-250 nM, read-out: CDK2/CCNE IC50 (25-250 nM)
# [6] = x = IC50 >250 nM, read-out: CDK1/CCNB IC50 (>250 nM column)
# [7] = 25-250 nM marked x, read-out: CDK6/CCND IC50 25-250 nM
# [8] = 25-250 nM marked x, read-out: CDK4/CCND IC50 25-250 nM
# [9] = x = IC50 25-250 nM, read-out: CDK4/CCND IC50 (25-250 nM)
# [10] = <25 nM, read-out: CDK4/CCND IC50 <25 nM
# [11] = >250 nM marked x, read-out: CDK1/CCNB IC50 >250 nM
# CDK6/CCND1, sequence (Q00534 whole entry): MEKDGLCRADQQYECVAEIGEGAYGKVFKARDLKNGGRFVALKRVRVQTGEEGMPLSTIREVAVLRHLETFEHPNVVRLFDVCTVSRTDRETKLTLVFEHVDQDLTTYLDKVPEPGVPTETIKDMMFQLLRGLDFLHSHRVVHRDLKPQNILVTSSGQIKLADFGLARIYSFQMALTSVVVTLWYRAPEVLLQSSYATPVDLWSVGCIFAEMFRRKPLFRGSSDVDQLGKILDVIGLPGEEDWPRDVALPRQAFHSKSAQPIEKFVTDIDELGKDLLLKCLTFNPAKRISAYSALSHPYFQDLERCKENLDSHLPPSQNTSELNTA
# CDK6/CCND1, sequence (P24385 whole entry partner): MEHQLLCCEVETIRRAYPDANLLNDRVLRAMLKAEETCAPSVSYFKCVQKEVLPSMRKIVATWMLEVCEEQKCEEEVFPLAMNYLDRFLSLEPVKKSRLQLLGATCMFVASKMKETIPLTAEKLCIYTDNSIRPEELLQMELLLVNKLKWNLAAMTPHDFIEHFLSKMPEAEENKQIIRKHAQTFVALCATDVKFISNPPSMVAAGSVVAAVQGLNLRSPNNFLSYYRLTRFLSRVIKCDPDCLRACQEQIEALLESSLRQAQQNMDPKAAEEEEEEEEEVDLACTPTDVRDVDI
# CDK1/CCNB1, sequence (P06493 whole entry): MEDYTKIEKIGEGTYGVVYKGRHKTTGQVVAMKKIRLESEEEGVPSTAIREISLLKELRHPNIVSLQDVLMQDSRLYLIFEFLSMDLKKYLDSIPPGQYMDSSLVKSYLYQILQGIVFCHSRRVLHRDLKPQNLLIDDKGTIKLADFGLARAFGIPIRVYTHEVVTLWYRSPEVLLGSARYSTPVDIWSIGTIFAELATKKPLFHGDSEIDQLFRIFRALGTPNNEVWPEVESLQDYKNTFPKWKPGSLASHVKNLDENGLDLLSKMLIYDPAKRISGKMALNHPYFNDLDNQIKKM
# CDK1/CCNB1, sequence (P14635 whole entry partner): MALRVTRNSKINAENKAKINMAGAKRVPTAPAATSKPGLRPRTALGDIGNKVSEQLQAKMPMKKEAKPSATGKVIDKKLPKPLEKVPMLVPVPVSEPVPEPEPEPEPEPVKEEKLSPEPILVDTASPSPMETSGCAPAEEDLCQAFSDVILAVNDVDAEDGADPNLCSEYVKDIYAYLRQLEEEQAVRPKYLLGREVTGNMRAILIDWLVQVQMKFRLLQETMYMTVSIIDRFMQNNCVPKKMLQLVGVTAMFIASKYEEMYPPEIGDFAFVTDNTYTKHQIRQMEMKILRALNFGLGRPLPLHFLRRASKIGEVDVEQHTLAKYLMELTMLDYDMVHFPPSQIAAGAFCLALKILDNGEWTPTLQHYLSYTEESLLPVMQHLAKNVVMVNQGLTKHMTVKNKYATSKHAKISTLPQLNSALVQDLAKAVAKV
# CDK4/CCND3, sequence (P11802 whole entry): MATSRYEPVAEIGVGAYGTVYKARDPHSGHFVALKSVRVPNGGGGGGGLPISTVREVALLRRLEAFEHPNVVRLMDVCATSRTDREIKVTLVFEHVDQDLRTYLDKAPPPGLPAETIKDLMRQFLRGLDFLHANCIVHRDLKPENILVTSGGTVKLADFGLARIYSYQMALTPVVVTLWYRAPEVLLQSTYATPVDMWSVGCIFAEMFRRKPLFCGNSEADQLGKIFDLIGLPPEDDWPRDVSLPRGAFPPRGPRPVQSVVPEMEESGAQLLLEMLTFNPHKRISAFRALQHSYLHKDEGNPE
# CDK4/CCND3, sequence (P30281 whole entry partner): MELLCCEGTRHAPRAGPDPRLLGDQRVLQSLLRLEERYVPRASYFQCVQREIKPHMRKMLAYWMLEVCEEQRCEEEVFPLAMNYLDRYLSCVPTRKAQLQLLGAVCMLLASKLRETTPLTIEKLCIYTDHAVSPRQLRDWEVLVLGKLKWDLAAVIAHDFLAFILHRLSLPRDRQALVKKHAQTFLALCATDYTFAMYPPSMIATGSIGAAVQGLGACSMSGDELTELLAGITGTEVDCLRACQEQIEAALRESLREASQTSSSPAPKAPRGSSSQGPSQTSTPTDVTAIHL
Compound,pIC50 (CDK6/CCND1; [1]),pIC50 (CDK4/CCND3; [2]),pIC50 (CDK1/CCNB1; [4]),pIC50 (CDK6/CCND1; [7]),other results
"Nc1ncccc1C#Cc1nccc2cnc(Nc3ccc(S(N)(=O)=O)cc3)cc12 [Example 475, 4-((5-((2-aminopyridin-3-yl)ethynyl)-2,6-naphthyridin-3-yl)amino)benzenesulfonamide]",< 6.60,< 6.60,6.60 to 7.60,,pIC50 (CDK2/CCNE1; [3]): > 7.60
"CS(=O)(=O)c1ccc(Nc2cc3c(C#Cc4ccc5[nH]c(=O)oc5c4)nccc3cn2)cc1 [Example 476, 6-((7-((4-(methylsulfonyl)phenyl)amino)-2,6-naphthyridin-1-yl)ethynyl)benzo[d]oxazol-2(3H)-one]",< 6.60,< 6.60,,,pIC50 (CDK2/CCNE1; [5]): 6.60 to 7.60; pIC50 (CDK1/CCNB1; [6]): < 6.60
"CNS(=O)(=O)c1ccc(Nc2cc3c(C#Cc4cccnc4N)nccc3cn2)c(C)c1 [Example 449, 4-((5-((2-aminopyridin-3-yl)ethynyl)-2,6-naphthyridin-3-yl)amino)-N,3-dimethylbenzenesulfonamide]",< 6.60,< 6.60,6.60 to 7.60,,pIC50 (CDK2/CCNE1; [3]): > 7.60
"CCS(=N)(=O)c1ccc(Nc2cc3c(C#Cc4ccc5c(c4)NC(=O)C54CC4)nccc3cn2)c(OC)c1 (single isomer, unassigned) [Ex 290, 6'-((7-((4-(ethylsulfonimidoyl)-2-methoxyphenyl)amino)-2,6-naphthyridin-1-yl)ethynyl)spiro[cyclopropane-1,3'-indolin]-2'-one]",,,,6.60 to 7.60,"pIC50 (CDK4/CCND3; [8]): 6.60 to 7.60; pIC50 (CDK1/CCNB1; 25-250 nM marked x, read-out: CDK1/CCNB IC50 25-250 nM): 6.60 to 7.60"
"CC(=O)NCCn1cc2c(C)c(-c3nccc4cnc(Nc5ccc(S(C)(=O)=O)cc5)cc34)ccc2n1 [Ex 632, N-(2-(4-methyl-5-(7-((4-(methylsulfonyl)phenyl)amino)-2,6-naphthyridin-1-yl)-2H-indazol-2-yl)ethyl)acetamide]",< 6.60,< 6.60,,,pIC50 (CDK2/CCNE1; [5]): 6.60 to 7.60
"Cc1cc2c(cc1C#Cc1nccc3cnc(Nc4ccc(S(=N)(=O)C(C)C)cc4)cc13)NC(=O)C2(C)C (single isomer, unassigned) [Ex 343, 3,3,5-trimethyl-6-((7-((4-(propan-2-ylsulfonimidoyl)phenyl)amino)-2,6-naphthyridin-1-yl)ethynyl)indolin-2-one]",,,6.60 to 7.60,,pIC50 (CDK4/CCND3; [9]): 6.60 to 7.60; pIC50 (CDK2/CCNE1; [3]): > 7.60
"CC1(C)C(=O)Nc2cc(C#Cc3nccc4cnc(Nc5ccc(S(=N)(=O)C6CCC6)cc5)cc34)ccc21 (single isomer, unassigned) [Ex 454, 6-((7-((4-(cyclobutanesulfonimidoyl)phenyl)amino)-2,6-naphthyridin-1-yl)ethynyl)-3,3-dimethylindolin-2-one]",,,6.60 to 7.60,,"pIC50 (CDK4/CCND3; x = IC50 <25 nM, read-out: CDK4/CCND IC50 (<25 nM)): > 7.60"
"CC1(C)C(=O)Nc2cc(C#Cc3nccc4cnc(Nc5ccc(S(C)(=O)=O)cc5F)cc34)ccc21 [Ex 438, 6-((7-((2-fluoro-4-(methylsulfonyl)phenyl)amino)-2,6-naphthyridin-1-yl)ethynyl)-3,3-dimethylindolin-2-one]",< 6.60,< 6.60,,,pIC50 (CDK2/CCNE1; [3]): > 7.60
"CCC1(CC)C(=O)Nc2cc(C#Cc3nccc4cnc(Nc5ccc(S(=O)(=O)C6CC6)cc5)cc34)ccc21 [Ex 408, 6-((7-((4-(cyclopropylsulfonyl)phenyl)amino)-2,6-naphthyridin-1-yl)ethynyl)-3,3-diethylindolin-2-one]",< 6.60,< 6.60,,,pIC50 (CDK1/CCNB1; [6]): < 6.60
"CC(C)S(=N)(=O)c1ccc(Nc2cc3c(C#Cc4ccc5c(c4)NC(=O)C5(C)CO)nccc3cn2)cc1 (single isomer, unassigned) [Ex 329, 3-(hydroxymethyl)-3-methyl-6-((7-((4-(propan-2-ylsulfonimidoyl)phenyl)amino)-2,6-naphthyridin-1-yl)ethynyl)indolin-2-one]",,,,6.60 to 7.60,pIC50 (CDK4/CCND3; [10]): > 7.60
"CS(=O)(=O)N1CCC(Nc2cc3c(-c4ccc(N5CCOCC5)cc4)nccc3cn2)CC1 [Ex 65, N-(1-(methylsulfonyl)piperidin-4-yl)-5-(4-morpholinophenyl)-2,6-naphthyridin-3-amine]",,,,6.60 to 7.60,"pIC50 (CDK4/CCND3; [8]): 6.60 to 7.60; pIC50 (CDK2/CCNE1; 25-250 nM marked x, read-out: CDK2/CCNE IC50 25-250 nM): 6.60 to 7.60"
"CS(=O)(=O)N1CCC(Nc2cc3c(-c4ccc(C#N)nc4)nccc3cn2)CC1 [Ex 61, 5-(7-((1-(methylsulfonyl)piperidin-4-yl)amino)-2,6-naphthyridin-1-yl)picolinonitrile]",,,,6.60 to 7.60,pIC50 (CDK4/CCND3; [8]): 6.60 to 7.60; pIC50 (CDK1/CCNB1; [11]): < 6.60
"CC(C)S(=N)(=O)c1ccc(Nc2cc3c(C#Cc4ccc5c(c4)NC(=O)C54CCC4)nccc3cn2)cc1 (single isomer, unassigned) [Ex 384, 6'-((7-((4-(propan-2-ylsulfonimidoyl)phenyl)amino)-2,6-naphthyridin-1-yl)ethynyl)spiro[cyclobutane-1,3'-indolin]-2'-one]",< 6.60,< 6.60,,,
"CNC(=O)C1CCCN(c2nccc3cnc(NC4CCN(S(C)(=O)=O)CC4)cc23)C1 (single isomer, unassigned) [Ex 33, N-methyl-1-(7-((1-(methylsulfonyl)piperidin-4-yl)amino)-2,6-naphthyridin-1-yl)piperidine-3-carboxamide]",,,,6.60 to 7.60,pIC50 (CDK4/CCND3; [10]): > 7.60; pIC50 (CDK1/CCNB1; [11]): < 6.60
"CCS(=N)(=O)c1ccc(Nc2cc3c(C#Cc4ccc5c(c4)NC(=O)C54CC4)nccc3cn2)cc1 (racemic) [Ex 376, 6'-((7-((4-(ethylsulfonimidoyl)phenyl)amino)-2,6-naphthyridin-1-yl)ethynyl)spiro[cyclopropane-1,3'-indolin]-2'-one]",,,6.60 to 7.60,,"pIC50 (CDK6/CCND1; x = IC50 25-250 nM, read-out: CDK6/CCND IC50 (25-250 nM)): 6.60 to 7.60; pIC50 (CDK4/CCND3; [9]): 6.60 to 7.60"
"CS(=O)(=O)N1CCC(Nc2cc3c(N4CCC(C#N)C4)nccc3cn2)CC1 (single isomer, unassigned) [Ex 261, 1-(7-((1-(methylsulfonyl)piperidin-4-yl)amino)-2,6-naphthyridin-1-yl)pyrrolidine-3-carbonitrile]",,,,6.60 to 7.60,pIC50 (CDK4/CCND3; [8]): 6.60 to 7.60; pIC50 (CDK1/CCNB1; [11]): < 6.60
